The source of these data is ChEMBL document CHEMBL1155776, “Effect of fluoroquinolone treatment on growth of and toxin production by epidemic and nonepidemic clostridium difficile strains in the cecal contents of mice” (Antimicrob Agents Chemother, 2007).

The term MIC denotes the smallest concentration in the dilution series that meets the test's criterion for growth inhibition. Low values mean a more susceptible organism, high ones a less susceptible organism.

≈ marks a conversion by molar mass, not a printed value. Calls of active or inactive are those of the source.

Data set [1] has as its system Clostridioides difficile. The data set is described as follows: Antimicrobial activity against nonepidemic Clostridium difficile ATCC 9689 by broth dilution method. The format is functional. In general terms: In broth dilution the organism is exposed to a series of concentrations in liquid medium.
The test system of data set [2] is Clostridioides difficile. The data set is described as follows: Antimicrobial activity against nonepidemic Clostridium difficile J29 by broth dilution method. In kind it is functional.
Data set [3] has as its system Clostridioides difficile. The data set is described as follows: Antimicrobial activity against epidemic Clostridium difficile BI9 by broth dilution method. In kind it is functional.
For data set [4], the system named is Clostridioides difficile. The data set can be described thus: Antimicrobial activity against epidemic Clostridium difficile BI6-8-17 by broth dilution method. The format is functional.
Data set [5] relates to Clostridioides difficile. The data set is described as follows: Antimicrobial activity against fluoroquinolone-resistant epidemic Clostridium difficile NAP1 by broth dilution method. In kind it is functional.
Data set [6] has as its system Clostridioides difficile. The data set is described as follows: Antimicrobial activity against fluoroquinolone-susceptible nonepidemic Clostridium difficile strain6 by broth dilution method. The format is functional.
Data set [7] relates to Clostridioides difficile. The data set is described as follows: Increase in toxin level in epidemic Clostridium difficile BI6-8-17 infected CF1 mouse at 1.4 mg/day, sc for 4 days assessed after 2 days of last treatment. In kind it is functional, organism-based.
Data set [8] relates to Clostridioides difficile. The data set can be described thus: Increase in toxin level in nonepidemic Clostridium difficile ATCC 9689 infected in CF1 mouse at 0.2 mg/day, sc for 4 days assessed after 2 days of last treatment. In kind it is functional, organism-based.
In data set [9] the test system is Clostridioides difficile. The data set is described as follows: Increase in toxin level in nonepidemic Clostridium difficile J29 infected CF1 mouse at 0.2 mg/day, sc for 4 days assessed after 2 days of last treatment. The format is functional, organism-based.
Data set [10] has as its system Clostridioides difficile. The data set is described as follows: Increase in toxin level in epidemic Clostridium difficile BI9 infected CF1 mouse at 0.2 mg/day, sc for 4 days assessed after 2 days of last treatment. The format is functional, organism-based.
Data set [11] relates to Clostridioides difficile. The data set can be described thus: Increase in toxin level in epidemic Clostridium difficile BI6-8-17 infected CF1 mouse at 0.2 mg/day, sc for 4 days assessed after 2 days of last treatment. In kind it is functional, organism-based.
Data set [12] concerns Clostridioides difficile. The data set can be described thus: Effect on growth of nonepidemic Clostridium difficile ATCC 9689 in CF1 mouse assessed as increase in bacterial density in cecal content at 2 mg/day, sc for 4 days assessed after 2 days of last treatment. The format is functional, organism-based.
Data set [13] concerns Clostridioides difficile. The data set is described as follows: Effect on growth of nonepidemic Clostridium difficile J29 in CF1 mouse assessed as increase in bacterial density in cecal content at 2 mg/day, sc for 4 days assessed after 2 days of last treatment. The format is functional, organism-based.
For data set [14], the system named is Clostridioides difficile. The data set can be described thus: Effect on growth of epidemic Clostridium difficile BI9 in CF1 mouse assessed as increase in bacterial density in cecal content at 2 mg/day, sc for 4 days assessed after 2 days of last treatment. In kind it is functional, organism-based.
Data set [15] deals with Clostridioides difficile. The data set is described as follows: Effect on growth of epidemic Clostridium difficile BI6-8-17 in CF1 mouse assessed as increase in bacterial density in cecal content at 2 mg/day, sc for 4 days assessed after 2 days of last treatment. The format is functional, organism-based.
The subject of data set [16] is Clostridioides difficile. The data set can be described thus: Effect on growth of nonepidemic Clostridium difficile ATCC 9689 in CF1 mouse assessed as increase in bacterial density in cecal content at 1.4 mg/day, sc for 4 days assessed after 2 days of last treatment. The format is functional, organism-based.
Data set [17] concerns Clostridioides difficile. The data set is described as follows: Effect on growth of nonepidemic Clostridium difficile J29 in CF1 mouse assessed as increase in bacterial density in cecal content at 1.4 mg/day, sc for 4 days assessed after 2 days of last treatment. The format is functional, organism-based.
Data set [18] relates to Clostridioides difficile. The data set can be described thus: Effect on growth of epidemic Clostridium difficile BI9 in CF1 mouse assessed as increase in bacterial density in cecal content at 1.4 mg/day, sc for 4 days assessed after 2 days of last treatment. The format is functional, organism-based.
Data set [19] deals with Clostridioides difficile. The data set is described as follows: Effect on growth of epidemic Clostridium difficile BI6-8-17 in CF1 mouse assessed as increase in bacterial density in cecal content at 1.4 mg/day, sc for 4 days assessed after 2 days of last treatment. The format is functional, organism-based.
The subject of data set [20] is Clostridioides difficile. The data set can be described thus: Increase in toxin level in nonepidemic Clostridium difficile ATCC 9689 infected in CF1 mouse at 2 mg/day, sc for 4 days assessed after 2 days of last treatment. In kind it is functional, organism-based.
Data set [21] has as its system Clostridioides difficile. The data set is described as follows: Increase in toxin level in nonepidemic Clostridium difficile J29 infected CF1 mouse at 2 mg/day, sc for 4 days assessed after 2 days of last treatment. The format is functional, organism-based.
Data set [22] relates to Clostridioides difficile. The data set is described as follows: Increase in toxin level in epidemic Clostridium difficile BI9 infected CF1 mouse at 2 mg/day, sc for 4 days assessed after 2 days of last treatment. The format is functional, organism-based.
Data set [23] deals with Clostridioides difficile. The data set can be described thus: Increase in toxin level in epidemic Clostridium difficile BI6-8-17 infected CF1 mouse at 2 mg/day, sc for 4 days assessed after 2 days of last treatment. In kind it is functional, organism-based.
Data set [24] deals with Clostridioides difficile. The data set is described as follows: Increase in toxin level in nonepidemic Clostridium difficile ATCC 9689 infected in CF1 mouse at 1.4 mg/day, sc for 4 days assessed after 2 days of last treatment. In kind it is functional, organism-based.
The test system of data set [25] is Clostridioides difficile. The data set can be described thus: Increase in toxin level in nonepidemic Clostridium difficile J29 infected CF1 mouse at 1.4 mg/day, sc for 4 days assessed after 2 days of last treatment. The format is functional, organism-based.
In data set [26] the test system is Clostridioides difficile. The data set can be described thus: Increase in toxin level in epidemic Clostridium difficile BI9 infected CF1 mouse at 1.4 mg/day, sc for 4 days assessed after 2 days of last treatment. In kind it is functional, organism-based.
Data set [27] has as its system Clostridioides difficile. The data set is described as follows: Effect on growth of fluoroquinolone-susceptible nonepidemic Clostridium difficile strain6 in CF1 mouse assessed as increase in bacterial density in cecal content at dosed sc for 5 days. The format is functional, organism-based.
In data set [28] the test system is Clostridioides difficile. The data set is described as follows: Inhibition of clindamycin-susceptible epidemic Clostridium difficile NAP1 in CF1 mouse at 0.2 mg/day, sc for 5 days. The format is functional, organism-based.
Data set [29] deals with Clostridioides difficile. The data set is described as follows: Inhibition of clindamycin-susceptible nonepidemic Clostridium difficile strain6 in CF1 mouse at 0.2 mg/day, sc for 5 days. The format is functional, organism-based.
Data set [30] relates to Clostridioides difficile. The data set can be described thus: Inhibition of clindamycin-susceptible epidemic Clostridium difficile NAP1 in CF1 mouse at 0.2 mg/day, sc for 5 days assessed after 2 days of last treatment. The format is functional, organism-based.
Data set [31] deals with Clostridioides difficile. The data set can be described thus: Inhibition of clindamycin-susceptible nonepidemic Clostridium difficile strain6 in CF1 mouse at 0.2 mg/day, sc for 5 days assessed after 2 days of last treatment. The format is functional, organism-based.
The nature of data set [32]: Drug level in Clostridium difficile infected CF1 mouse stool at 0.2 mg/day for 4 days. In kind it is ADME. The note with it: read-out: Drug uptake.
Data set [33] relates to Clostridioides difficile. The data set is described as follows: Effect on growth of epidemic Clostridium difficile BI9 in CF1 mouse assessed as increase in bacterial density in cecal content at 0.4 mg/day, sc for 4 days assessed after 2 days of last treatment. In kind it is functional, organism-based.
A short description of data set [34]: Drug level in Clostridium difficile infected CF1 mouse stool at 0.375 mg/day for 4 days. In kind it is ADME. The note with it: read-out: Drug uptake.

Turning to `CO/N=C(\C(=O)N[C@@H]1C(=O)N2C(C(=O)O)=C(CSc3nc(=O)c(O)nn3C)CS[C@H]12)c1csc(N)n1` [CEFTRIAXONE], the MIC was 32 µg/mL (≈ 57.7 µM) in the data set with Clostridioides difficile [1]; 64 µg/mL (≈ 115 µM) against Clostridioides difficile [2]; 32 µg/mL (≈ 57.7 µM) in the data set with Clostridioides difficile [3]; 32 µg/mL (≈ 57.7 µM) against Clostridioides difficile [4]; 16 µg/mL (≈ 28.9 µM) against Clostridioides difficile [5]; 32 µg/mL (≈ 57.7 µM) against Clostridioides difficile [6]. The outcome in the data set on Clostridioides difficile [7], in the data set on Clostridioides difficile [8], in the data set with Clostridioides difficile [9], in the data set on Clostridioides difficile [10], in the data set with Clostridioides difficile [11] and with Clostridioides difficile [12] was Active. Further, the result in the data set on Clostridioides difficile [13], with Clostridioides difficile [14], with Clostridioides difficile [15], with Clostridioides difficile [16], in the data set on Clostridioides difficile [17] and with Clostridioides difficile [18] was Active. Moreover, the outcome in the data set with Clostridioides difficile [19], in the data set on Clostridioides difficile [20], in the data set with Clostridioides difficile [21], with Clostridioides difficile [22], in the data set on Clostridioides difficile [23] and in the data set with Clostridioides difficile [24] was Active. Also, the result in the data set with Clostridioides difficile [25], in the data set on Clostridioides difficile [26] and in the data set with Clostridioides difficile [27] was Active.

As to `CCC[C@@H]1C[C@@H](C(=O)N[C@@H]([C@H]2O[C@H](SC)[C@H](O)[C@@H](O)[C@H]2O)[C@H](C)Cl)N(C)C1` [CLINDAMYCIN], the MIC was > 256 µg/mL in the data set with Clostridioides difficile [1]; > 256 µg/mL in the data set with Clostridioides difficile [2]; > 256 µg/mL in the data set with Clostridioides difficile [3]; > 256 µg/mL in the data set on Clostridioides difficile [4]; 2 µg/mL (≈ 4.71 µM) against Clostridioides difficile [5]; 2 µg/mL (≈ 4.71 µM) in the data set with Clostridioides difficile [6]. The outcome with Clostridioides difficile [7], in the data set with Clostridioides difficile [8], in the data set on Clostridioides difficile [9], in the data set on Clostridioides difficile [10], in the data set on Clostridioides difficile [11] and in the data set on Clostridioides difficile [12] was Active. The result in the data set with Clostridioides difficile [13], in the data set on Clostridioides difficile [14], in the data set with Clostridioides difficile [15], in the data set on Clostridioides difficile [16], in the data set on Clostridioides difficile [17] and in the data set on Clostridioides difficile [18] was Active. The outcome with Clostridioides difficile [19], in the data set on Clostridioides difficile [20], in the data set with Clostridioides difficile [21], with Clostridioides difficile [22], in the data set on Clostridioides difficile [24] and in the data set with Clostridioides difficile [25] was Active. The outcome with Clostridioides difficile [26], in the data set with Clostridioides difficile [28] and in the data set with Clostridioides difficile [29] was Active. Further, the result with Clostridioides difficile [30] and with Clostridioides difficile [31] was inactive.

As to `COc1c(N2CCNC(C)C2)c(F)cc2c(=O)c(C(=O)O)cn(C3CC3)c12` (stereo not drawn) [GATIFLOXACIN], the MIC against Clostridioides difficile [1] was < 2 µg/mL; in the data set on Clostridioides difficile [2], 32 µg/mL (≈ 85.2 µM); in the data set on Clostridioides difficile [3] it was 64 µg/mL (≈ 170 µM); with Clostridioides difficile [4] it was 32 µg/mL (≈ 85.2 µM); in the data set with Clostridioides difficile [5] it was 256 µg/mL (≈ 682 µM); with Clostridioides difficile [6] it was 4 µg/mL (≈ 10.7 µM). The outcome in the data set with Clostridioides difficile [7], with Clostridioides difficile [8], with Clostridioides difficile [9], with Clostridioides difficile [10], in the data set with Clostridioides difficile [11] and in the data set with Clostridioides difficile [33] was Active. Moreover, the outcome in the data set on Clostridioides difficile [20], in the data set on Clostridioides difficile [21], in the data set on Clostridioides difficile [22], with Clostridioides difficile [23], in the data set with Clostridioides difficile [24] and with Clostridioides difficile [25] was Active. For the same compound, the outcome with Clostridioides difficile [26] was Active. The concentration at 96 h in data set [32] turned out to be 76600 ng/g.

Consider `C[C@H]1COc2c(N3CCN(C)CC3)c(F)cc3c(=O)c(C(=O)O)cn1c23.C[C@H]1COc2c(N3CCN(C)CC3)c(F)cc3c(=O)c(C(=O)O)cn1c23.O` [LEVOFLOXACIN], for which the MIC in the data set with Clostridioides difficile [1] was 8 µg/mL; in the data set with Clostridioides difficile [2] it was 256 µg/mL; against Clostridioides difficile [3], 256 µg/mL; with Clostridioides difficile [4], > 256 µg/mL; against Clostridioides difficile [5] it was > 256 µg/mL; with Clostridioides difficile [6], 8 µg/mL. Further, the concentration at 96 h in data set [34] was determined as 58100 ng/g.
